Assay results reported in US4732972A, “Polypeptides having growth hormone releasing activity” (Hoffmann-La Roche Inc., priority 1985, dated 1988).
Ends that are not written are not given here.

How the values were obtained:
[1] = test system: rat pituitary cells; test: Growth hormone release in rat pituitary cells in tissue culture (RIA for rat growth hormone); assay type: cell-based; conditions: for Growth Hormone Released, Percentage of Control / Growth Hormone Released: 3 hours incubation; for Growth Hormone Released: control 82
Description: The biological activity of (Leu^27)-GRF(1-44)-OH was compared with that of natural GRF(1-44)-NH2 which was isolated from a human pancreatic tumor of an individual suffering from acromegaly (Salk Institute standard hp-GRF-NH2 (NL-A-10)). The assay for biological activity, which is based on the ability to stimulate production of growth hormone in rat pituitary cells in tissue culture, was performed in the following manner.
Pituitaries from 30-40 male Sprague-Dawley rats (175 g) were removed aseptically after decapitation. The anterior lobes were collected, washed 3 times in sterile Hepes buffer (0.025M) (pH 7.35) and dispersed at 37° C. in 20-30-ml Hepes buffer (pH 7.35) containing collagenase (4 mg per ml) and Dispase (Protease grade II, 2 mg per ml). After gentle 100-110-min vortexing and trituration by Pasteur pipette, the dispersed cells were separated by centrifugation (150×g, 4 min) and re-suspended in Hepes buffer containing neuraminidase (8 μg/ml), and 200 μg/ml ethylenedinitrilotetraacetic acid (EDTA) disodium salt pH 7.35, for 10 min. The cells were washed twice with plating medium and plated on multiwell-plates (1.5×10^5 cells per ml) using the following defined medium: F-12/DMEM/(6:3:1) (Gibco: 430-1700/430-1600/320-2591) with 2 g BSA/l., 2.38 g Hepes/l, 50 mg Garamycin/l (Schering Co.). The medium in each well was supplemented either with (Leu^27)-GRF(1-44)-OH or natural GRF(1-44)-NH2 at concentrations ranging from 3.1 to 200 fmol. per ml. of medium. Control wells contained no supplement. Plating was done with this medium added with 2% fetal calf serum to ensure rapid fixation of the cells. On the fourth day the cells were washed twice with the defined medium without fetal calf serum. Finally 900 μl of defined medium was added to each well plus 100 μl of the same medium containing each individual treatment, in triplicate. After 3 hours of incubation the medium was collected and diluted as required to conduct radioimmunoassays (RIAs) for rat growth hormone. RIAs were conducted using Sinha's anti-murine GH immune serum.

[2] = test system: growth hormone release; conditions: compared with amidated 44 amino acid GRF; cited from earlier work

Compound | Relative potency compared to the Salk Institute standard ([1]; computerized analysis of the data of Tables 1 and 2, standard = GRF(1-44)-NH2) | Growth hormone releasing activity compared with GRF(1-44)-NH2 (in words) ([1]; data of Tables 1 and 2) | Growth Hormone Released, Percentage of Control ([1]; dose 3.1 f mol./ml.) | Growth Hormone Released ([1]; dose 3.1 f mol./ml.) [ng/mL] | Growth Hormone Released, Percentage of Control ([1]; dose 6.3 f mol./ml.) | Growth Hormone Released ([1]; dose 6.3 f mol./ml.) [ng/mL] | Growth Hormone Released, Percentage of Control ([1]; dose 12.5 f mol./ml.) | Growth Hormone Released ([1]; dose 12.5 f mol./ml.) [ng/mL] | Growth Hormone Released, Percentage of Control ([1]; dose 25.0 f mol./ml.) | Growth Hormone Released ([1]; dose 25.0 f mol./ml.) [ng/mL] | Growth Hormone Released, Percentage of Control ([1]; dose 50.0 f mol./ml.) | Growth Hormone Released ([1]; dose 50.0 f mol./ml.) [ng/mL] | Growth Hormone Released, Percentage of Control ([1]; dose 100.0 f mol./ml.) | Growth Hormone Released ([1]; dose 100.0 f mol./ml.) [ng/mL] | Growth Hormone Released, Percentage of Control ([1]; dose 200.0 f mol./ml.) | Growth Hormone Released ([1]; dose 200.0 f mol./ml.) [ng/mL] | Growth hormone released in vitro relative to the amount of peptide administered ([1]; in vitro) | Biological activity after removal of the amide group (in words) [2]
CC[C@H](C)[C@H](NC(=O)[C@H](C)NC(=O)[C@H](CC(=O)O)NC(=O)[C@H](C)NC(=O)[C@@H](N)Cc1ccc(O)cc1)C(=O)N[C@@H](Cc1ccccc1)C(=O)N[C@H](C(=O)N[C@@H](CC(N)=O)C(=O)N[C@@H](CO)C(=O)N[C@@H](Cc1ccc(O)cc1)C(=O)N[C@@H](CCCNC(=N)N)C(=O)N[C@@H](CCCCN)C(=O)N[C@H](C(=O)N[C@@H](CC(C)C)C(=O)NCC(=O)N[C@@H](CCC(N)=O)C(=O)N[C@@H](CC(C)C)C(=O)N[C@@H](CO)C(=O)N[C@@H](C)C(=O)N[C@@H](CCCNC(=N)N)C(=O)N[C@@H](CCCCN)C(=O)N[C@@H](CC(C)C)C(=O)N[C@@H](CC(C)C)C(=O)N[C@@H](CCC(N)=O)C(=O)N[C@@H](CC(=O)O)C(=O)N[C@H](C(=O)N[C@@H](CC(C)C)C(=O)N[C@@H](CO)C(=O)N[C@@H](CCCNC(=N)N)C(=O)N[C@@H](CCC(N)=O)C(=O)N[C@@H](CCC(N)=O)C(=O)NCC(=O)N[C@@H](CCC(=O)O)C(=O)N[C@@H](CO)C(=O)N[C@@H](CC(N)=O)C(=O)N[C@@H](CCC(N)=O)C(=O)N[C@@H](CCC(=O)O)C(=O)N[C@@H](CCCNC(=N)N)C(=O)NCC(=O)N[C@@H](C)C(=O)N[C@@H](CCCNC(=N)N)C(=O)N[C@@H](C)C(=O)N[C@@H](CCCNC(=N)N)C(=O)N[C@@H](CC(C)C)C(=O)O)[C@@H](C)CC)C(C)C)[C@@H](C)O [(Leu^27)-GRF(1-44)-OH] | 1.063 | about the same level as GRF(1-44)-NH2 or slightly higher | 162 Percentage of Control | 133 | 204 Percentage of Control | 167 | 272 Percentage of Control | 223 | 329 Percentage of Control | 270 | 417 Percentage of Control | 342 | 516 Percentage of Control | 423 | 649 Percentage of Control | 532 | on the order of ten times or more the amount of (Leu^27)-GRF-OH administered | 
free acid form of the 44 amino acid GRF: 44 amino acid GRF with the amide group removed, free acid form (YADAIFTNSYRKVLGQLSARKLLQDIMSRQQGESNQERGARARL-OH; UniProt P01286 32-75, looked up) |  |  |  |  |  |  |  |  |  |  |  |  |  |  |  |  |  | significant loss of biological activity
